From patent US9340532B2, “Methods and compositions for inhibiting CNKSR1” (PHUSIS THERAPEUTICS, INC., priority 2012, dated 2016)
Values joined by “and” are separate entries in the source; they are usually repeats but may differ in a detail not shown here. Equal values may be shown once. Read-outs that look alike come from different tables or passages of the source.

Experiments:
PH-domain of PDPK1 = molecular target: T1, PH-domain of PDPK1 (Homo sapiens, UniProt O15530); assay: SPR binding to expressed PH-domain of PDPK1
T1 construct: made in house
T1 sequence (O15530 459-550 limits assumed): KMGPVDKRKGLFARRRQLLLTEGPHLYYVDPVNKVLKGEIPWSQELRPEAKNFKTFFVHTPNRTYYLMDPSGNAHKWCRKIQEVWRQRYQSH
Procedure: (§1) In embodiments, the binding of identified compounds to the crystal structures of other PH-domain signaling proteins, AKT, PDPK1, Btk, and Tiam1 can be predicted. In such embodiments, the Kds exceed about 100 μM. In other embodiments, SPR can measure the binding of identified compounds to the expressed PH-domains of AKT, PDPK1 and Tiam1. […] Thus, the identified compounds appear have, at least, about 50 to about 100 fold selectivity for CNKSR1 compared to the other PH-domains studied.
(§2) A commercially available docking package, GOLD (GOLD [3.2], CCDC: Cambridge, UK, 2007) was used to evaluate the docking of compounds 1-7 into the binding pocket, see e.g. Table 5. Other docking was performed using modeling algorithms with state-of-the-art commercial drug discovery software (Schrodinger suite). GLIDE was chosen as the docking algorithm used to select and optimize compounds, providing a GlideScore as a rough estimate of binding affinity that was used to rank and select the best compounds. Additionally, ligand-based approaches provided an alternative to structure based drug discovery. Ligand-based virtual screening methodologies can take into account shape and electrostatics (like ROCS) and the pharmacophoric features (acceptor, donor, hydrophobic, aromatic, etc.) of its functional groups. […]

[1] = system: mut-KRAS NSCLC cell lines; assay: Screening against NSCLC cell line panel, mut-KRAS lines; type: cell-based; conditions: for inhibition of mut-KRAS cell growth (in words): FIG. 3 and FIG. 5
Procedure: (§3) The isogenic KRAS lines harboring G12D, G12C, and G12V were obtained from Horizon Discovery labs on a one year lease. These cells were cultured in McCoys media with 10% FBS to 80% confluency. Cells were then released from flasks via trypsinization and plated into 96-well plates at an initial density range of 2000 cells per well. Cells were allowed 24 hours to attach, and then the agents were added to the culture media at a range of concentrations from 0-100 μM. Cells were incubated for 72 hours with the drugs, and then viability was assessed using an MTS viability assay. Cells were exposed to MTS reagent (Promega) dissolved in PBS (Hyclone) at a concentration of 200 μL reagent/mL media for 2 hours. Absorbance was then read at 490 nm, and viability was expressed as a percentage normalized between the negative control (no cells plated) and the condition of cells with no drug added (100% viability) normalized as the upper limit of viability.
(§4) Our panel of 30 cell lines and an extensive characterization were obtained from Dr. John Minna (UTSW). All cell lines were cultured in RPMI 1640 with 10% FBS. Cells were treated with concentrations of agents at concentrations 0.01 to 50 μM and evaluated as described above. IC50's were determined using Excelfit.

PH-domain of Tiam1 = assay: SPR binding to expressed PH-domain of Tiam1
Procedure: as §1, §2

PH-domain of AKT = molecular target: T2, PH-domain of AKT (Homo sapiens, UniProt P31749); assay: SPR binding to expressed PH-domain of AKT
T2 construct: made in house
T2 sequence (P31749 5-108 limits assumed): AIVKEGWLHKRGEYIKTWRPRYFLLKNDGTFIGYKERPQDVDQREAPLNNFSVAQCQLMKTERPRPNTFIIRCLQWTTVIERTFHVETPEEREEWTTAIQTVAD
Procedure: as §1, §2

CNK1 PH-domain (CNKSR1) = molecular target: T3, CNK1 PH-domain (CNKSR1) (Homo sapiens, UniProt Q969H4); assay: SPR binding assay (Biacore T100), CNK1 PH-domain; conditions: for Surface Plasmon Resonance CNKSR1 binding (RU max) / Surface Plasmon Resonance CNKSR1 stability (RU max post-injection): date 12 09 13
T3 construct: The PH-domain His-fusion proteins (CNK1 and AKT1) were expressed and immobilized on a NTA chip; made in house
T3 sequence (Q969H4 403-502 limits assumed): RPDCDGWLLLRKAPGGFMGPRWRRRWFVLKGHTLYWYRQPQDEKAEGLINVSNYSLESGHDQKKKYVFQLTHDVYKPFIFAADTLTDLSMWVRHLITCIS
Procedure: (§5) All interaction analyses were done with a Biacore T100 Control Software v3.2, and BIAevaluation v4.1 analysis software (Biacore). The PH-domain His-fusion proteins (CNK1 and AKT1) were expressed and immobilized on a NTA chip to a level of 10,000 response units or less. Small molecule analytes at concentrations ranging from 50 μM to 0.010 μM were injected at a high flow rate (30 μL/min) DMSO concentrations in all samples and running buffer were 1-5% (v/v).
(§6) Other docking was performed using modeling algorithms with state-of-the-art commercial drug discovery software (Schrodinger suite). […] Additionally, ligand-based approaches provided an alternative to structure based drug discovery. Ligand-based virtual screening methodologies can take into account shape and electrostatics (like ROCS) and the pharmacophoric features (acceptor, donor, hydrophobic, aromatic, etc.) of its functional groups. […] SPR interaction analyses of all other compounds was undertaken using a Biacore T100 with Control and Evaluation software kit.

AKT1 PH-domain = molecular target: T4, AKT1 PH-domain (Homo sapiens, UniProt P31749); assay: SPR binding assay (Biacore T100), AKT1 PH-domain; conditions: for Kd: read-out: AKT KD; for AKT KD: Table 7, curated diversity set
T4 construct: The PH-domain His-fusion proteins (CNK1 and AKT1) were expressed and immobilized on a NTA chip; made in house
T4 sequence (P31749 5-108 limits assumed): as the sequence (P31749 5-108 limits assumed) above
Procedure: as §5
(§7) A commercially available docking package, GOLD (GOLD [3.2], CCDC: Cambridge, UK, 2007) was used to evaluate the docking of compounds 1-7 into the binding pocket, see e.g. Table 5. Other docking was performed using modeling algorithms with state-of-the-art commercial drug discovery software (Schrodinger suite). GLIDE was chosen as the docking algorithm used to select and optimize compounds, providing a GlideScore as a rough estimate of binding affinity that was used to rank and select the best compounds. Additionally, ligand-based approaches provided an alternative to structure based drug discovery. Ligand-based virtual screening methodologies can take into account shape and electrostatics (like ROCS) and the pharmacophoric features (acceptor, donor, hydrophobic, aromatic, etc.) of its functional groups. Inositol tetraphosphate (IP4) binding to the PH-domain of CNKSR1 provided a good starting point for shape screening. Both structure-based and ligand-based approaches were used to find novel compounds (Table 7) and to refine and improve lead compounds (Tables 8, and 9). SPR interaction analyses for Compounds 1 through 7 were performed with a Biacore 2000, using Biacore2000 Control Software v3.2 and BIAevaluation v4.1 analysis software (Biacore) as described in Mol Cancer Ther 7:2621 (2008). SPR interaction analyses of all other compounds was undertaken using a Biacore T100 with Control and Evaluation software kit.

wt-KRAS NSCLC cell lines = assay: Screening against NSCLC cell line panel, wt-KRAS lines; type: cell-based; conditions: for inhibition of wt-KRAS cell growth (in words): FIG. 5
Procedure: as §3, §4

[2] = Pharmacokinetics after oral administration; type: in vivo, mice; conditions: compound 8 administered orally to mice at the same dose (200 mg/kg); 200 mg/kg
Procedure: In order to understand better the reasons for the antitumor activity of compound #7 pharmacokinetic studies were conducted. […] Following oral administration in vivo plasma concentrations of the parent compound were low, about 3 μg/ml (7 μM) whereas the de-esterified acid form (compound 8) was present at high peak concentrations of around 50 μg/ml (128 μM). When compound 8 was administered orally to mice at the same dose even higher peak concentrations of 90 μg/ml (230 μM) were achieved.

[3] = Mouse pharmacokinetics (iv); type: in vivo; conditions: for clearance: in vivo
[4] = system: A549 (KRAS mutant cell line); assay: Proliferation Assay A549; type: cell-based; conditions: Homo sapiens, N = 2 experiments
Procedure: as §3, §4

[5] = system: H1373 (KRAS mutant cell line); assay: Proliferation Assay H1373; type: cell-based; conditions: Homo sapiens, NCI-H1373, N = 2 experiments
Procedure: as §3, §4

[6] = system: H1975 (KRAS wildtype cell line); assay: Proliferation Assay H1975; type: cell-based; conditions: Homo sapiens, NCI-H1975, n = 1
Procedure: as §3, §4

[7] = system: H226 (KRAS wildtype cell line); assay: Proliferation Assay H226; type: cell-based; conditions: Homo sapiens, NCI-H226, n = 1
Procedure: as §3, §4

PLE = assay: SPR binding, PLE; conditions: Table 8
Procedure: as §7, with “SPR interaction analyses of all other compounds was undertaken using a Biacore T100 with Control and Evaluation software kit.” left out

PH-domain of CNKSR1 = molecular target: T5, PH-domain of CNKSR1 (Homo sapiens, UniProt Q969H4); assay: SPR binding (Biacore 2000) to CNKSR1 PH-domain, initial hits; conditions: Table 5
T5 sequence (Q969H4 403-502 limits assumed): T3 sequence (Q969H4 403-502 limits assumed)
Procedure: In embodiments, a homology model for the PH-domain of CNSKR1 based on known PH-domain crystal structures can be developed. The docking program PHuDock® can be used to identify potential inhibitors of CNKSR1. […] The binding of the compounds to the expressed PH-domain of CNKSR1 (KDobs) can be measured by surface plasmon resonance (SPR) spectroscopy.
as §6

[8] = Table 6, mean of 3 mut-KRAS lines, read-out: NSCL cell line cytotoxicity IC50 mut-KRAS
[9] = Table 6, mean of 3 wt-KRAS lines, read-out: NSCL cell line cytotoxicity IC50 wt-KRAS
[10] = Table 7, read-out: IC50 mut-KRAS
[11] = Table 7, read-out: IC50 WT-KRAS

SMILES | inhibition of mut-KRAS cell growth (in words) [1] | Kd (CNK1 PH-domain (CNKSR1); Table 6, read-out: CNKS KD) [µM] | IC50 [1, 8] [µM] | Kd (AKT1 PH-domain; Table 6) [µM] | IC50 (wt-KRAS NSCLC cell lines; [9]) [µM] | t1/2β [3] [h] | clearance [3] [mL/min/kg] | IC50 [1, 10] [µM] | IC50 (wt-KRAS NSCLC cell lines; [11]) [µM] | also measured
CCOC(=O)Cc1nn(SCC(=O)O)c(=O)c2ccccc12 [#4] | low micromolar inhibition |  |  |  |  |  |  |  |  | SPR binding to PH-domain of PDPK1 (PH-domain of PDPK1): No measurable binding; SPR binding to PH-domain of Tiam1 (PH-domain of Tiam1): No measurable binding; SPR binding to PH-domain of AKT (PH-domain of AKT): No measurable binding
Cc1ccc(-c2csc(Cn3nc(CC(=O)O)c4ccccc4c3=O)n2)cc1 [Compound 8] |  | > 100 | > 100 | 51.6 | > 100 | 1.2 | 4740 |  |  | activity in cells in culture ([1]; FIG. 5): inactive; peak plasma concentration [2]: 90 μg/ml and 230 μM
Cc1ccc(-c2csc(Cn3nc(CC4OCCCO4)c4ccccc4c3=O)n2)cc1 [Compound 9] |  | 0.026 | 25 | 66.3 | 55 | 4.33 | 133 |  |  | IC50 [4]: 42 µM; IC50 [5]: > 100 µM; IC50 [6]: 100 µM; IC50 [7]: > 100 µM
Cc1ccc(-c2csc(Cn3nc(Cc4nccs4)c4ccccc4c3=O)n2)cc1 [Compound 10] | inhibited the growth | 4.12 | 34 |  | 46 | 4.08 | 119 |  |  | selectivity for mut-KRAS cells compared to wt-KRAS cells ([1]; NSCLC cell lines): approximately two fold; inhibition of wt-KRAS cell growth (in words) (wt-KRAS NSCLC cell lines): also inhibited
Cc1ccc(-c2csc(Cn3nc(CC4OCC(=O)O4)c4ccccc4c3=O)n2)cc1 (stereo not drawn) [Compound 11] | inhibited the growth | 0.27 | 45 | 2.53 | 56 |  |  |  |  | inhibition of wt-KRAS cell growth (in words) (wt-KRAS NSCLC cell lines): also inhibited
O=C(O)CSc1cc(NS(=O)(=O)c2cccs2)c2ccccc2c1O [Compound 12] | more potently than compound 7 or its analogs |  |  |  |  |  |  | 17 | 12 | AKT KD (AKT1 PH-domain): Bound; inhibition of wt-KRAS cell growth (in words) (wt-KRAS NSCLC cell lines): more potently than compound 7 or its analogs
O=C(O)c1ccc2c(c1)C1C=CCC1C(C(=O)O)N2 (stereo not drawn) [Compound 56] |  |  |  |  |  |  |  | > 100 | > 100 | 
Cc1ccc(-c2nc(SCC(=O)O)c3c(=O)n(C)c(=O)n(C)c3n2)cc1 [Compound 61] |  |  |  |  |  |  |  | > 100 | > 100 | 
O=C(O)COc1cc(OCC(=O)O)c2c3c(c(=O)oc2c1)CCCC3 [Compound 76] |  |  |  |  |  |  |  | > 100 | > 100 | AKT KD (AKT1 PH-domain): Bound
CCNC(=O)Cc1nn(Cc2nc(-c3ccc(C)cc3)cs2)c(=O)c2ccccc12 [Compound 78] |  | 0.65 |  | 2.53 |  | 0.467 | 34 |  |  | IC50 [4]: 25 µM; Surface Plasmon Resonance CNKSR1 binding (RU max) (CNK1 PH-domain (CNKSR1)): 0.224 RU * 100/Da; Surface Plasmon Resonance CNKSR1 stability (RU max post-injection) (CNK1 PH-domain (CNKSR1)): −0.065 RU * 100/Da; IC50 [5]: 45 µM; IC50 [6]: 60 µM; IC50 [7]: 60 µM
CCOC(=O)/C=C/c1cc(NS(=O)(=O)c2cccs2)c2c(c1O)OCO2 [Compound 88, (E)-ethyl 3-(4-hydroxy-7-(thiophene-2-sulfonamido)benzo[d][1,3]dioxol-5-yl)acrylate] |  |  |  |  |  |  |  |  |  | IC50 [4]: > 100 µM; Kd (CNK1 PH-domain (CNKSR1); Table 8, read-out: CNK KD): 0.186 µM; Surface Plasmon Resonance CNKSR1 binding (RU max) (CNK1 PH-domain (CNKSR1)): 0.817 RU * 100/Da; Surface Plasmon Resonance CNKSR1 stability (RU max post-injection) (CNK1 PH-domain (CNKSR1)): 1.138 RU * 100/Da; IC50 [5]: > 100 µM; Kd (AKT1 PH-domain; Table 8): 75.2 µM; Kd (PLE): 261 µM; IC50 [6]: > 100 µM; IC50 [7]: > 100 µM
CC(=O)Nc1cccc(-n2nnc(SCC(=O)c3cc(-c4ccccc4)no3)n2)c1 [Compound 120] |  |  |  |  |  |  |  |  |  | IC50 ([1]; Table 5, read-out: Mean IC50 mut-KRAS): 47 ± 5.2 µM; Kd (PH-domain of CNKSR1): 3.3 ± 1.2 µM
